Data as given in patent publication US20140080847A1, “Compositions and Methods for Affecting Energy Balance, Body Composition, Fitness, and Well-Being” (OEJM Products Holdings, LLC, priority 2012, published 2014).

Legend:
[1] = test system: humans; settings: cited from earlier work
[2] = test system: cats and dogs; settings: early animal studies; cited from earlier work
[3] = test system: New Zealand white rabbits; test: Acute toxicity and tolerance (MTD) of a single oral dose in New Zealand white rabbits; assay type: in vivo, rabbit
Method: (§1) The maximum tolerated dose (MTD) of orally administered 1,3-DMPA and 1,4-DMPA was determined in New Zealand white rabbits and Wistar rats.
(§2) Determination of MTD of orally-administered 1,3-DMPA in New Zealand white rabbits: Twenty-four rabbits (twelve male, twelve female) were quarantined for at least seven days and then were randomly divided into four groups with six animals (3 male and 3 female) in each group. […] Animals were observed daily for fourteen days following administration. Each animal's body weight, food intake, mortality, and natural orifices were monitored. Clinical observations included skin condition, gait, movement, neurological disorders, eye condition, feces, convulsions, tremors, activity rate, restlessness, grooming, sleep, aggressiveness, salivation, diarrhea, respiration, appetite, thirst and urine conditions. Other observations included fur condition, mucous membranes, presence or absence of secretions and excretions and autonomic activity, lacrimation, piloerection, pupil size, posture, arched back, distended abdomen, fur, mucous membrane, presence or absence of secretions, tail elevation, motor activity, urination and defecation, and response to handling as well as the presence of clonic or tonic movements, repetitive circling, bizarre behavior, self-mutilation and walking backwards. At the conclusion of the fourteen day monitoring period, gross pathological examination was carried out on all animals. Heart, lung, liver, kidneys, spleen, stomach, large intestine, small intestine, brain and skin were examined for any macroscopic lesions.
(§3) Determination of MTD of orally-administered 1,4-DMPA in New Zealand white rabbits: Thirty rabbits (fifteen male, fifteen female) were quarantined for at least seven days and then were randomly divided into five groups with six animals (3 male and 3 female) in each group. […] Animals were observed daily for fourteen days following administration. Each animal's body weight, food intake, mortality, and natural orifices were monitored. As above, clinical observations included observation of natural orifices for any abnormal secretions and monitoring for the presence or absence of secretions and excretions, monitoring of mucous membranes, fur and skin condition, mortality, gait, posture, arched back, distended abdomen, movement and motor activity, neurological disorders, eye condition and pupil size, feces, convulsions, tremors, tail elevation, activity rate, restlessness, grooming, sleep, aggressiveness, salivation, diarrhea, respiration, appetite, thirst and urine conditions, autonomic activity, lacrimation, piloerection, response to handling, as well as the presence of clonic or tonic movements, repetitive circling, bizarre behavior, self-mutilation and walking backwards. At the conclusion of the fourteen day monitoring period, gross pathological examination was carried out on all animals. Heart, lung, liver, kidneys, spleen, stomach, large intestine, small intestine, brain and skin were examined for any macroscopic lesions.

[4] = as above; assay type: in vivo, rabbit; settings: both sexes, New Zealand white, in vivo; rabbit, single oral dose
Method: as §1, §2, §3

[5] = test system: human(s); test: Comparative effects of 1,3-DMPA and 1,4-DMPA compounds in humans (self-administration); assay type: in vivo
Method: The compounds 1,3-DMPA, racemic 1,4-DMPA, (R)-1,4-DMPA, and (S)-1,4-DMPA were administered to human(s). A non-smoking person of normal weight ingested 40 mg 1,3-DMPA as part of a dietary supplement (dietary ingredients: arginine α-ketoglutarate, creatine monohydrate, β-alanine, caffeine, 1,3-dimethylpentylamine HCL, schisandra cinensis (berry) extract (standardized for schizandrol A)); powder form), self-administered daily for at least seven days. […] To compare the effects of 1,3-DMPA to the effects of 1,4-DMPA, this individual later ingested 1,4-DMPA (racemic) for at least seven days at a dose of 60 mg per day, combined with 250 mg caffeine.
To compare the effects of (R)-1,4-DMPA, and (S)-1,4-DMPA, the individual described above ingested each enantiomer separately. Starting dose was ˜20 mg per day, which was increased to 30 mg per day if treatment was continued. Doses were combined with 250 mg caffeine as described above. […] The dose was increased to 30 mg per day; the total duration of treatment was at least three weeks. […] Ingestion of (S)-1,4-DMPA (25-30 mg per day) with caffeine produced different effects. […] The individual ceased self-administering (S)-1,4-DMPA after several days of experiencing the latter effects.

[6] = Acute toxicity and tolerance (MTD) of a single oral dose in Wistar rats; assay type: in vivo, rat; settings: both sexes, Wistar, in vivo; rat, single oral dose
Method: as §1
(§4) Determination of MTD of orally-administered 1,3-DMPA in Wistar rats: The same general methods and procedures were followed as described above. This study involved forty animals randomly divided into four groups of ten animals (five male, five female) in each group. […] The MTD of a single oral dose of 1,3-DMPA was determined to be between 125 mg/kg and 250 mg/kg.
as §4, with “1,4-DMPA” for “1,3-DMPA”, “group. The groups were treated as follows: Group I (vehicle control—water), Group II (75 mg/kg), Group III (150 mg/kg), and Group IV (300 mg/kg). […] Gross pathological changes were not observed in the treated groups during necropsy.” for “group.”, “150” for “125”, “300 mg/kg in Wistar rats.” for “250 mg/kg.”

[7] = test system: Wistar rats; test: as above; assay type: in vivo, rat
Method: as §1, §4
as §4, with “1,4-DMPA” for “1,3-DMPA”, “group. The groups were treated as follows: Group I (vehicle control—water), Group II (75 mg/kg), Group III (150 mg/kg), and Group IV (300 mg/kg). […] Gross pathological changes were not observed in the treated groups during necropsy.” for “group.”, “150” for “125”, “300 mg/kg in Wistar rats.” for “250 mg/kg.”

[8] = male, 40 mg daily in a dietary supplement containing caffeine, at least seven days
[9] = male, 25-30 mg per day with caffeine, several days
[10] = male, 60 mg per day with 250 mg caffeine, at least seven days
[11] = male, 20 then 30 mg per day with 250 mg caffeine, at least three weeks
[12] = male, starting dose 20 mg per day with 250 mg caffeine

For `CCC(C)CC(C)N` (stereo not shown) [1,3-DMPA, 1,3-dimethylpentylamine, reference compound], the vasopressor effects ([1]; acute oral administration in humans) is given as “vasopressor effects similar to the effects of caffeine”, the “glycerol and free fatty acid concentration (markers of lipolysis)” value ([1]; humans, following exercise) is given as “increased levels of these markers of lipolysis” and the blood pressure ([1]; humans) is given as “increase blood pressure to a modest degree”. For the same compound, the “heart rate and circulating catecholamines (norepinephrine and epinephrine)” value ([1]; humans) was “no effect on heart rate or on circulating catecholamines”, the norepinephrine levels ([1]; humans) was “no effect on norepinephrine levels” and the vasopressor activity [2] was “exhibit vasopressor or vasoconstriction activity”. For the same compound, the gross pathological observations ([3]; rabbit, 50 mg/kg or 150 mg/kg oral) was “no changes”, the behavioral observations ([3]; rabbit, 50 mg/kg oral) was “did not exhibit any behavioral aberrations” and the clinical signs ([3]; rabbit, 150 mg/kg oral, a few animals, hours 1-6 after administration) was “tremors”. For the same compound, the clinical signs ([3]; rabbit, 300 mg/kg oral) was “nasal discharge, salivation, tremors, convulsions and tachycardia”, the “gross necropsy of animals that died” value ([3]; rabbit, 300 mg/kg oral) was “reddish discoloration in the lungs, multiple watery cyst on the right median lobe of the liver and focal white patches” and the mortality ([3]; rabbit, 300 mg/kg oral, six animals per group, within four hours after dosing) was “four animals in this group died”. For the same compound, the mean body weight ([3]; rabbit, 50, 150, 300 mg/kg oral, 14-day study period) was “consistent increase”, the mean food intake ([3]; rabbit, 50, 150, 300 mg/kg oral, study period) was “normal” and the food intake ([3]; rabbit, treatment groups 50-300 mg/kg, first observations following treatment) was “initial decrease in food intake”. For the same compound, the LD50 at 14 days [4] was 324 mg/kg, the MTD at 14 days [4] was 150 to 300 mg/kg and the CNS stimulation [5, 8] was “CNS stimulation, including feelings of restlessness and jitteriness”. For the same compound, the appetite [5, 8] was “decreased appetite”, the heart rate [5, 8] was “increased heart rate” and the mood [5, 8] was “improved mood”. The “physical performance during exercise and strength training” value [5, 8] was “improved physical performance”, the LD50 at 14 days [6] was 482 mg/kg and the MTD at 14 days [6] was 125 to 250 mg/kg. For the same compound, the additional clinical signs ([7]; rat, 250 mg/kg oral) was “tremors”, the food intake ([7]; rat, 250 mg/kg oral) was “decreased food intake on Day 3” and the necropsy analysis ([7]; rat, 250 mg/kg oral, preterminal mortality) was “hyperemia in the stomach glandular mucosa; congestion of lungs, liver and adrenals; the presence of blood clots in the cranial cavity; and ballooning of the small intestine with reddish yellow fluid”. The mortality ([7]; rat, 250 mg/kg oral, ten animals per group, within 26 hours of dosing) was “One preterminal mortality”, the mean body weight ([7]; rat, 50, 125, 250 mg/kg oral, all treatment groups) was “consistent increase” and the mean food intake ([7]; rat, 50 and 125 mg/kg oral) was “normal”. The mortality ([7]; rat, 50 and 125 mg/kg oral (lower dose groups)) was “no mortalities” and the clinical signs ([7]; rat, all treatment groups 50, 125, 250 mg/kg oral) was “piloerection, tail elevation, nasal discharge and hyperactivity”.
With `CC(C)CC[C@H](C)N` [(S)-1,4-DMPA, (S)-1,4-dimethylpentylamine] the “alertness and focus in comparison to (R)-1,4-DMPA” value [5, 9] was “lessened alertness and focus” and the “heart rate and restlessness in comparison to (R)-1,4-DMPA” value [5, 9] was “increased heart rate and restlessness”.
In the case of `CC(C)CCC(C)N` (racemic) [1,4-DMPA, 1,4-dimethylpentylamine], the vasopressor activity [2] is given as “possesses vasopressor activity”, the clinical signs ([3]; rabbit, 250 mg/kg and 350 mg/kg oral, all animals) is given as “tremors and tachycardia” and the body weight ([3]; rabbit, 350 mg/kg oral (Group V), study period) is given as “variation in body weight”. The “gross pathology of the animal that died” value ([3]; rabbit, 350 mg/kg oral, died after 36 hours) was “dark reddish discoloration of the lung suggesting congestion, slight reddish discoloration of the trachea, and mild petechial hemorrhages in the liver”, the mortality ([3]; rabbit, 350 mg/kg oral, six animals per group, within 36 hours) was “one mortality” and the mortality ([3]; rabbit, 50, 125, 250 mg/kg oral) was “No mortalities”. For the same compound, the mean body weight ([3]; rabbit, 50, 125, 250 mg/kg oral (all groups except Group V), 14 days, vs vehicle control) was “consistent increase”, the mean food intake ([3]; rabbit, all treatment groups 50-350 mg/kg, first 48 hours post treatment, vs control) was “reduced” and the gross pathological changes ([3]; rabbit, treated groups 50-350 mg/kg, except the animal that died) was “No gross pathological changes were observed”. The “toxicity and tolerance compared with 1,3-DMPA” value ([3]; single-dose rat and rabbit studies) was “less toxic and better tolerated than 1,3-DMPA”, the MTD at 14 days [4] was 250 to 350 mg/kg and the appetite [5, 10] was “decreased appetite”. The “effect on heart rate compared with prior 1,3-DMPA” value [5, 10] was “reduced effect on heart rate”, the “jitteriness or anxiousness compared with prior 1,3-DMPA” value [5, 10] was “noticeably reduced feelings of jitteriness or anxiousness” and the “level of CNS stimulation compared with 1,3-DMPA” value [5, 10] was “about the same level of CNS stimulation”. For the same compound, the mood and vigor [5, 10] was “improved mood and vigor”, the “nature of the stimulatory effect” value [5, 10] was “increased focus and alertness and reduced fatigue” and the physical performance [5, 10] was “improved physical performance”. For the same compound, the fat mass ([5]; reports of individuals ingesting the compound) was “reduction in fat mass”, the LD50 at 14 days [6] was 465 mg/kg and the MTD at 14 days [6] was 150 to 300 mg/kg. The additional clinical signs ([7]; rat, 150 mg/kg and 300 mg/kg oral) was “Tremors and convulsions”, the “examination of the animals that died” value ([7]; rat, 300 mg/kg oral, died 4.5 hours post dosing) was “right median lobe consolidation and red foci on lungs, mild reddish discoloration of adrenals and spleen, mild enlargement of the spleen and glandular mucosa of the stomach showing hyperemia” and the mortality ([7]; rat, 300 mg/kg oral, ten animals per group, within 4.5 hours) was “Four mortalities”. For the same compound, the mean body weight ([7]; rat, 75, 150, 300 mg/kg oral, study period, vs control) was “consistently increased”, the mortality ([7]; rat, 75 and 150 mg/kg oral) was “No mortalities” and the clinical signs ([7]; rat, all treated animals 75, 150, 300 mg/kg oral) was “piloerection, tail elevation, nasal discharge, tachycardia and hyperactivity”. The “gross pathological changes at necropsy” value ([7]; rat, treated groups 75-300 mg/kg oral) was “not observed” and the feed consumption ([7]; rat, treatment groups 75, 150, 300 mg/kg oral, first 48 hours post administration) was “consume less feed”.
With `CC(C)CC[C@@H](C)N` [(R)-1,4-DMPA, (R)-1,4-dimethylpentylamine] the CNS stimulation [5, 11] was “CNS stimulation, including feelings of alertness, focus, and reduced fatigue”, the appetite [5, 11] was “decreased appetite” and the “heart rate, jitteriness, nervousness, anxiety” value [5, 11] was “not associated with a noticeable increase in heart rate, jitteriness, nervousness, or anxiety”. The mood [5, 11] was “improved mood”, the physical performance [5, 11] was “improved physical performance” and the CNS stimulant effect [5, 12] was “produced CNS stimulant effect”. The “jitteriness or pressor effect” value [5, 12] was “little or no jitteriness or pressor effect”.
